Measurements as given in patent US20040254246A1, “Treating or preventing hot flashes using prodrugs of GABA analogs” (priority 2003, published 2004).

Assays:
[1] = tested on: hot flashes in postmenopausal women; experiment: Open label clinical study of hot flash frequency and severity, osmotic sustained release capsules; type: in vivo, human; details: osmotic sustained release capsules 700 mg, two capsules twice daily (2800 mg/day), oral, two weeks
From the text: Twenty postmenopausal women who have been experiencing hot flashes (an average of at least 6 per day, range 6-20 per day) over the past 12 months and who have not been treated with hormone therapy (i.e., no estrogen, progestin, tamoxifen or leuprolide therapy) over the past 2 months are recruited to an open label clinical study on the effect of administration of gabapentin prodrugs on the frequency and severity of hot flash symptoms. After a two week baseline screening assessment, the prodrug 1-{[(α-isobutanoyloxyethoxy)carbonyl]aminomethyl}-1-cyclohexane acetic acid, formulated as osmotic sustained release capsules containing 700 mg drug (preparation of the sustained release capsules is described in Section 5.2 above), is administered in two capsules twice daily (2800 mg/day, equal to ˜1400 mg gabapentin equivalents/day) for two weeks. Each patient records the frequency and severity of hot flashes in a diary following the protocol of Guttuso et al., Obstet. Gynecol 2003, 101, 337-345. Daily hot flash frequency is calculated by totaling the number of hot flashes per week and dividing by the number of days in the week for which data is recorded. The primary outcome measure is the percentage change in hot flash frequency from baseline to the end of treatment week two.

[2] = tested on: hot flashes in postmenopausal women; experiment: Open label clinical study of hot flash frequency and severity, immediate release capsules; type: in vivo, human; details: immediate release 300 mg capsules, two capsules three times daily (1800 mg/day), oral, two weeks
From the text: Twenty postmenopausal women who have been experiencing hot flashes (an average of at least 6 per day, range 6-20 per day) over the past 12 months and who have not been treated with hormone therapy (i.e., no estrogen, progestin, tamoxifen or leuprolide therapy) over the past 2 months are recruited to an open label clinical study on the effect of administration of a gabapentin prodrug on the frequency and severity of hot flash symptoms. After a two week baseline screening assessment, the prodrug 1-{[(α-isobutanoyloxyethoxy)carbonyl]aminomethyl}-1-cyclohexane acetic acid (synthesized as described by Gallop et al., International Publication No. WO 02/100347), formulated as an immediate release dosage form in 300 mg capsules, is administered in two capsules three times daily (1800 mg/day, equal to ˜900 mg gabapentin equivalents/day) for two weeks. Each patient records the frequency and severity of hot flashes in a diary following the protocol of Guttuso et al., Obstet. Gynecol. 2003, 101, 337-345. Daily hot flash frequency is calculated by totaling the number of hot flashes per week and dividing by the number of days in the week for which data is recorded. The primary outcome measure is the percentage change in hot flash frequency from baseline to the end of treatment week two. […]

[3] = Drug release from sustained release oral osmotic dosage form in artificial gastric fluid; type: physicochemical; details: osmotic sustained release dosage form of Section 5.2 (700 mg drug composition), one 10 mil passageway
Procedure: A sustained release oral osmotic delivery dosage form containing the gabapentin prodrug 1-{[(α-isobutanoyloxyethoxy)carbonyl]aminomethyl}-1-cyclohexane acetic acid is prepared following methods described in Ayer et al., U.S. Pat. No. 5,707,663. Accordingly, 660 grams of 1-{[α-isobutanoyloxyethoxy)carbonyl]aminomethyl}-1-cyclohexane acetic acid and 30 grams of pharmaceutical acceptable poly(ethylene oxide), 5,000,000 molecular weight, is added to the bowl of a fluid bed granulator. The microencapsulation process is computerized and atomized in cycles. The process is initiated by first fluidizing the dry drug and the polymer powder for 3 minutes and the blended granules are microencapsulated with aqueous hydroxypropylmethylcellulose solution. The polymer solution is prepared by dissolving 35 grams of hydroxypropylmethylcellulose comprising 11,200 molecular weight in 400 grams of water. […]
The osmotic displacement-push composition is then prepared as follows: first, 3.7 kg of sodium chloride and 150 grams of red ferric oxide are separately screened through an 8 mesh screen using a Quadro comil. […] The conditions monitored during the process are as follows: solution spray rate of 400 g/min (3 nozzles are used); inlet temperature 45° C.; outlet temperature 24° C. and process air flow of 1,500 ft^3/minute. […]

[4] = tested on: hot flashes in postmenopausal women; details: 59 postmenopausal women, double-blind placebo controlled trial; cited from earlier work

Compound | decrease in mean hot flash intensity from baseline [1] | decrease in mean hot flash intensity from baseline [2] | release rate [3] | reduction in hot flash frequency from baseline [4]
CC(OC(=O)NCC1(CC(=O)O)CCCCC1)OC(=O)C(C)C (stereo not drawn) [1-{[(α-isobutanoyloxyethoxy)carbonyl]aminomethyl}-1-cyclohexane acetic acid] | more than 35% | more than 35% | > 20 mg/h | 
NCC1(CC(=O)O)CCCCC1 [gabapentin, 1-Aminomethyl-1-cyclohexane acetic acid] |  |  |  | substantial reduction in hot flash frequency from baseline
